Measurements taken from patent US12201610B2, “Compositions comprising aticaprant” (Janssen Pharmaceuticals, Inc., priority 2022, dated 2025).

Assays:
Format in all cases: in vivo, human
[1] = test system: subjects with MDD; assay: SATE score (Example 6); conditions: Treatment Week 6, aticaprant 10 mg
Excerpt: SATE is a one to three questionnaire administered when the subject is unable to complete other evaluations, i.e., away from the clinical setting such as at home. SATE is useful to evaluate improvement or deterioration of depressive symptoms of the subjects over a short period of time. […] See, Table 6.
iv. To investigate the effect of aticaprant on symptoms of depression using the Clinical Global Impression-Severity (CGI-S), the patient reported Symptoms of Major Depressive Disorder Scale (SMDDS) and the self-assessment of treatment experience (SATE).
(§1) • (i) Depression: Montgomery-Åsberg Depression Rating Scale (MADRS), Clinical Global Impression-Severity (CGI-S), Symptoms of Major Depressive Disorder Scale (SMDDS), and Self-assessment of treatment experience (SATE) • (ii) Anhedonia: Snaith-Hamilton Pleasure Scale (SHAPS) • (iii) Anxiety: Structured Interview Guide for the Hamilton Anxiety scale (SIGH-A) and HAM-A6 • (iv) Effects on Cognition: The Cognitive and Physical Functioning Questionnaire (CPFQ) • (v) Safety assessments

[2] = test system: subjects with MDD; assay: SIGH-A score (Example 6); conditions: 10 mg; Treatment Week 6; 59 subjects analyzed
Excerpt: (§2) v. To investigate the effect of aticaprant on symptoms of anxiety using the HAM-A and on core symptoms of anxiety using the HAM-A6 subscale.
as §1

[3] = test system: subjects with MDD; assay: ASEX sexual functioning score (Example 6)
Excerpt: As used herein, the term “decrease in sexual functioning” refers to reducing or lessening of one or more components of the human sex drive, i.e., sexual functioning. In some embodiments, the sexual functioning comprises one or more of sexual drive, sexual arousal, vaginal lubrication, erection, orgasm achievement, or orgasm satisfaction. In other embodiments, the sexual functioning comprises sexual drive. In further embodiments, the sexual functioning comprises vaginal lubrication satisfaction. In further embodiments, the sexual functioning comprises orgasm achievement. In yet other embodiments, the sexual functioning comprises orgasm satisfaction. Desirably, the patient's sexual functioning is assessed at the time of initial administration of aticaprant. Thus, the patient's sexual functioning while taking aticaprant can be compared to the patient's sexual functioning before administration of aticaprant. Sexual functioning may be assessed by using standard scales and techniques such as the Arizona Sexual Experience Scale (ASEX). The ASEX is used to investigate whether aticaprant has a further positive or negative effect on sexual function. The ASEX is 5 item rating scale administered to patients that quantifies sexual drive, sexual arousal, vaginal lubrication or penile erection, ability to reach orgasm and satisfaction. Scores range from 5 to 30, and two different versions of the scale are available (males and females).
Patients had their sexual functioning measured using a standard, well accepted rating scale: ASEX. See, Table 48.

[4] = test system: subjects with MDD; assay: HAM-A6 total score (Example 6); conditions: 10 mg; Treatment Week 6; 59 subjects analyzed
Excerpt: as §2, §1

[5] = Body weight by treatment group (Example 6)
Experimental: Treatment with aticaprant as described herein has several advantages over the treatments in the art. […] As used herein, the term “weight gain” refers to an increase in the weight of patient, relative to the weight of the patient before taking aticaprant or the weight of the patient that is assessed at the time of the initial administration of aticaprant. In certain embodiments, the patient may actually see a decrease in overall weight, relative to the weight of the patient before taking aticaprant.
At the lead-in baseline timepoint, the mean weight for subjects in the placebo group was 76.17 kg compared to 78.66 in the aticaprant group. After 6 weeks in the double-blind treatment phase, the mean weight in the placebo group was 75.75 kg compared to 78.57 kg in the aticaprant group. […] This is unexpected because other adjunctive treatments for MDD result in a mean weight increase. See, Thase M, et al. J Clin Psych. 2015: 76(9), 1224-1231; Thase, J Clin Psych. 2015, 76(9): 1232-1240; El Khalili, Int J Neuropsychopharmacol. 2010, 13, 917-932; Marcus, J. Clin. Psychopharmacol. […] Nashville, Tenn, ACNP, 2008; Earley, American College of Neuropsychopharmacology, 2007, Annual Meeting Abstracts (Boca Raton, Fla, Dec. 9-13, 2007). Nashville, TN, ACNP, 2007). See, Table 45.

Cc1cc(C)cc(C2CCCN2Cc2ccc(Oc3ccc(C(N)=O)cc3F)cc2)c1 (centres unmarked) [aticaprant, 3-fluoro-4-4-2-(3,5-dimethylphenyl)pyrrolidin-1-yl-methylphenoxybenzamide]
SATE: Depression Worsened (Much worse) ([1]; n = 0): 0 subjects | SATE: Depression Worsened (Slightly worse) ([1]; n = 0): 0 subjects | SATE: Depression Worsened (Very much worse) ([1]; n = 0): 0 subjects | SATE: Depression Much improved ([1]; n = 21): 6 subjects | SATE: Depression Slightly improved ([1]; n = 21): 15 subjects | SATE: Depression Very Much Improved ([1]; n = 21): 0 subjects | SATE: Overall Depression (Got worse) ([1]; n = 30): 0 subjects | SATE: Overall Depression (Improved) ([1]; n = 30): 21 subjects | SATE: Overall Depression (Not changed) ([1]; n = 30): 9 subjects | Change from Treatment Baseline in SIGH-A score, Arithmetic Mean (SD) [2]: −5.85 ± 5.369 scores on a scale | ASEX score ([3]; Baseline, n = 85): 21.26 | ASEX score ([3]; Endpoint, n = 85): 19.79 | ASEX score Relative % Change ([3]; n = 85): −6.91% | ASEX score Absolute Change ([3]; n = 85, lower score indicates improvement): −1.47 | ASEX total score mean change from treatment baseline (SD) ([3]; to week 6, lower score indicates improvement): −1.5 (4.02) points | Change from Treatment Baseline in HAM-A6 Total Score, Arithmetic Mean (SD) [4]: −2.73 ± 2.651 scores on a scale | Mean weight, mean (SE) ([5]; Lead-in Baseline, n = 85): 78.66 (1.65) kg | Mean weight, mean (SE) ([5]; Screening, n = 85): 78.42 (1.65) kg | Mean weight, mean (SE) ([5]; Withdrawal Baseline, n = 85): 78.57 (1.71) kg | mean weight ([5]; after 6 weeks in the double-blind treatment phase): 78.57 kg | mean weight ([5]; lead-in baseline timepoint): 78.66 kg | Weight Absolute Change (Withdrawal—Lead-in) ([5]; n = 85): -0.09 kg | Weight Relative % Change ([5]; n = 85): −0.11%
